In EP0322643A1, “Medicines containing as a mixture interferon and 1-desoxy-piperidinoses, process for their manufacture and their use” (BAYER AG, priority 1987, dated 1989):

System: Visna-Virus
Assay: Visna virus test: inhibition of virus-induced cytopathic effect in infected sheep fibroblast cell cultures
Type: cell-based
Design: key to Antivirale Wirkung in der Zellkultur*: 3 = kompletter antiviraler Schutzeffekt; 100% Schutz der Zellen vor der Infektion; 2 = 50% Schutzeffekt der infizierten Zellkultur; 1- 10 - 20% Schutzeffekt der infizierten Zellkultur; 0 = komplette Zerstörung der infizierten Zellkultur
Conditions: for Antivirale Wirkung in der Zellkultur*: compound alone, Schafszellen
Text: In Zellkulturen, die mit Visna-Virus infiziert sind, treten 5 bis 10 Tage nach der Infektion ausgeprägte virusinduzierte, zytopathische Effekte auf. Durch Behandlung der infizierten Zellkulturen mit den erfindungsgemäßen Kombinationen von Verbindungen der allgemeinen Formel (I) und Interferon konnte das Auftreten dieser zytopathischen Effekte verhindert werden.
Der Visna-Virus-Test wurde nach der Methode von 0. Narayan et al., Journal of Infectious Diseases 135, 5, 1977, 800 - 806 durchgeführt. Dazu wurden die erfindungsgemäßen Kombinationen von Verbindungen der allgemeinen Formel (I) und Interferon im Kulturmedium zu nicht zytotoxischen Konzentrationen verdünnt, und zwar in 96er Microtiterplatten. Anschließend wurden zu jeder Verdünnung der Wirkstoffe Schafsfibroblastenzellen (5 x 10⁴ Zellen pro Napf) in Kulturmedium zugeführt.
Jedes Näpfchen erhielt dann 50 µl einer Visna-Viruslösung mit einem Titer von ca. 2,5 x 10⁴ TCID₅₀ (TCID = tissue culture infectious dosis). Diese Virusdosis entspricht einer MOI (Multiplizität der Infektion) von ca. 0,05.
Unter diesen Infektionsbedingungen resultierte zwischen Tag 5 und Tag 10 in einer Infektionskontrolle ohne Substanz ein virusinduzierter, zytopathischer Effekt. Die infizierten und behandelten Zellen und die Kontrollzellen wurden 7 Tage bei 37°C, 5% CO₂ inkubiert.
Bei Auftreten des virusinduzierten zytopathogenen Effektes in der unbehandelten Viruskontrolle wurden die Kulturen mit Formalin fixiert und anschließend mit einer Giemsa-Lösung gefärbt. Die inhibitorische Konzentration (IC₅₀) wurde mikroskopisch als die Konzentration ermittelt, bei der der zytopathische Effekt um 50% gehemmt wurde, im Vergleich zur unbehandelten Viruskontrolle, die 100% Zellzerstörung aufwies.

CC(C)c1ccc(NC(=O)CCN2C[C@@H](O)[C@@H](O)[C@H](O)[C@H]2CO)cc1 [3-(1,5-Didesoxy-1,5-imino-D-mannit-N-yl)-propionsäure-4-isopropyl-anilid]
Reduktion der Konzentration der Einzelkomponenten um den Faktor (by combining both active substances, versus the single component alone): 30
Antivirale Wirkung in der Zellkultur* (Konzentration der Testsubstanz 0,03 mg/ml): 2 (2 = 50% Schutzeffekt der infizierten Zellkultur)
Antivirale Wirkung in der Zellkultur* (Konzentration der Testsubstanz 0,5 mg/ml): 3 (3 = kompletter antiviraler Schutzeffekt; 100% Schutz der Zellen vor der Infektion)
Antivirale Wirkung in der Zellkultur* (Konzentration der Testsubstanz 0,06 mg/ml): 3 (3 = kompletter antiviraler Schutzeffekt; 100% Schutz der Zellen vor der Infektion)
Antivirale Wirkung in der Zellkultur* (Konzentration der Testsubstanz 0,25 mg/ml): 3 (3 = kompletter antiviraler Schutzeffekt; 100% Schutz der Zellen vor der Infektion)
Antivirale Wirkung in der Zellkultur* (Konzentration der Testsubstanz 0,001 mg/ml): 0
Antivirale Wirkung in der Zellkultur* (Konzentration der Testsubstanz 1 mg/ml): 3 (3 = kompletter antiviraler Schutzeffekt; 100% Schutz der Zellen vor der Infektion)
Antivirale Wirkung in der Zellkultur* (Konzentration der Testsubstanz 0,003 mg/ml): 0
Antivirale Wirkung in der Zellkultur* (Konzentration der Testsubstanz 0,007 mg/ml): 0
Antivirale Wirkung in der Zellkultur* (Konzentration der Testsubstanz 0,015 mg/ml): 1 (1- 10 - 20% Schutzeffekt der infizierten Zellkultur)
Antivirale Wirkung in der Zellkultur* (Konzentration der Testsubstanz 0,125 mg/ml): 3 (3 = kompletter antiviraler Schutzeffekt; 100% Schutz der Zellen vor der Infektion)
